Results published in patent US8003660B2, “Modulators of muscarinic receptors” (Vertex Pharmaceuticals Incorporated, priority 2006, dated 2011).
Read-outs that look alike come from different tables or passages of the source.

Legend:
Format in all cases: cell-based
M1 muscarinic receptor = target: T1, M1 muscarinic receptor (Homo sapiens, UniProt P11229); assay: Functional mobilization of intracellular calcium (FLIPR) in CHO cells expressing M1; conditions: for EC50: CHO cells expressing M1, FLIPR calcium; for Emax: CHO; for M1 Activity: CHO cells expressing M1, FLIPR calcium assay
T1 construct: expressed in transfected cells; host or cells: CHO (M1-CHO)
T1 sequence (P11229 1-460): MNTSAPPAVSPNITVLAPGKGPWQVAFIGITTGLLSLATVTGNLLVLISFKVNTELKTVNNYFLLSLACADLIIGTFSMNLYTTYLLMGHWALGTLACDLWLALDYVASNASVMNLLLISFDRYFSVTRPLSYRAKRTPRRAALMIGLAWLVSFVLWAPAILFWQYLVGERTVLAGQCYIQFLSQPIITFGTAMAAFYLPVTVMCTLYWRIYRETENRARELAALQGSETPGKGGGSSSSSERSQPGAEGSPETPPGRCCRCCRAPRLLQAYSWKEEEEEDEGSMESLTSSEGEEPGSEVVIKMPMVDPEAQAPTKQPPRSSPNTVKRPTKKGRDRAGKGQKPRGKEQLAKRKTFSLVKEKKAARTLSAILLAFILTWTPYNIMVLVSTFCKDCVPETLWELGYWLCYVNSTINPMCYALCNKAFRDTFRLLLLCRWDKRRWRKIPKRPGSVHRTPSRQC
Method in brief: (§1)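 Calcium flux is read on FLIPR over 60 sec at 488/540 nm in muscarinic-receptor CHO lines. Antagonist mode adds carbachol at EC80 after 15 min compound preincubation or with simultaneous co-application. Agonist mode adds compound alone. Cells carry Fluo-3 or Calcium 3 dye in probenecid-containing pH 7.4 buffer, 0.5% DMSO final.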

M2 muscarinic receptor = target: T2, M2 muscarinic receptor (Homo sapiens, UniProt P08172); assay: Functional mobilization of intracellular calcium (FLIPR) in CHO cells expressing M2; conditions: for EC50: CHO cells expressing M2, FLIPR calcium; for Emax: CHO; for M2 Activity: CHO cells expressing M2, FLIPR calcium assay
T2 construct: expressed in transfected cells; host or cells: CHO (M2-CHO)
T2 sequence (P08172 1-466): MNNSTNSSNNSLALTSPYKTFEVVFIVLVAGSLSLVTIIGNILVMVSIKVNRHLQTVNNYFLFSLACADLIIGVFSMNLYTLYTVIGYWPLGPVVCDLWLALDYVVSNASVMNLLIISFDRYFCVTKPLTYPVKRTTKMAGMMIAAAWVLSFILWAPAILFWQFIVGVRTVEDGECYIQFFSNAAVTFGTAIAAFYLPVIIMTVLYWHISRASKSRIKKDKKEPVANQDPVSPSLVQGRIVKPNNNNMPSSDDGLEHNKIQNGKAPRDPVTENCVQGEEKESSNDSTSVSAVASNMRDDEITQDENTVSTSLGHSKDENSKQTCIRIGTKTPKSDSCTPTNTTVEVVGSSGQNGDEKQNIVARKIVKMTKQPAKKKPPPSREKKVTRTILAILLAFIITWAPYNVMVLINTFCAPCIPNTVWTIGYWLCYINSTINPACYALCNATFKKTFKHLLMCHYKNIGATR
Method in brief: as §1

M3 muscarinic receptor = target: T3, M3 muscarinic receptor (Homo sapiens, UniProt P20309); assay: Functional mobilization of intracellular calcium (FLIPR) in CHO cells expressing M3; conditions: for EC50: CHO cells expressing M3, FLIPR calcium; for Emax: CHO; for M3 Activity: CHO cells expressing M3, FLIPR calcium assay
T3 construct: expressed in transfected cells; host or cells: CHO (M3-CHO)
T3 sequence (P20309 whole entry): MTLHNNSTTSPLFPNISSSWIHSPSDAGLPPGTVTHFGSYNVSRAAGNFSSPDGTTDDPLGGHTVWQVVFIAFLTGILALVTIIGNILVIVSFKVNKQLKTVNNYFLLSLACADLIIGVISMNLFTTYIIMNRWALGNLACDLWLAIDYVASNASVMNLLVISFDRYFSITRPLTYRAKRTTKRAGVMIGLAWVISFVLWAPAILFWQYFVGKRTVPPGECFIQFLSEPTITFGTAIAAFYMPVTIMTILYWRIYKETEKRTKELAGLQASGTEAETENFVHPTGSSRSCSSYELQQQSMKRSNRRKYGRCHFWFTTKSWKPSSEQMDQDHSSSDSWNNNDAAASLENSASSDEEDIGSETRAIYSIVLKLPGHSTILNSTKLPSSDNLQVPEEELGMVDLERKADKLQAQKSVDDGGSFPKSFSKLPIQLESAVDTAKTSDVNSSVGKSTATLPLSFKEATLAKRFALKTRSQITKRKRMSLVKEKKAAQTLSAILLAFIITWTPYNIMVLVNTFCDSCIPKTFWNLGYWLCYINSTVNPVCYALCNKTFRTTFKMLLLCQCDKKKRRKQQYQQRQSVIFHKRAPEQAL
Method in brief: as §1

M4 muscarinic receptor = target: T4, M4 muscarinic receptor (Homo sapiens, UniProt P08173); assay: Functional mobilization of intracellular calcium (FLIPR) in CHO cells expressing M4; conditions: for EC50: CHO cells expressing M4, FLIPR calcium; for Emax: CHO; for M4 Activity: CHO cells expressing M4, FLIPR calcium assay
T4 construct: expressed in transfected cells; host or cells: CHO (M4-CHO)
T4 sequence (P08173 1-479): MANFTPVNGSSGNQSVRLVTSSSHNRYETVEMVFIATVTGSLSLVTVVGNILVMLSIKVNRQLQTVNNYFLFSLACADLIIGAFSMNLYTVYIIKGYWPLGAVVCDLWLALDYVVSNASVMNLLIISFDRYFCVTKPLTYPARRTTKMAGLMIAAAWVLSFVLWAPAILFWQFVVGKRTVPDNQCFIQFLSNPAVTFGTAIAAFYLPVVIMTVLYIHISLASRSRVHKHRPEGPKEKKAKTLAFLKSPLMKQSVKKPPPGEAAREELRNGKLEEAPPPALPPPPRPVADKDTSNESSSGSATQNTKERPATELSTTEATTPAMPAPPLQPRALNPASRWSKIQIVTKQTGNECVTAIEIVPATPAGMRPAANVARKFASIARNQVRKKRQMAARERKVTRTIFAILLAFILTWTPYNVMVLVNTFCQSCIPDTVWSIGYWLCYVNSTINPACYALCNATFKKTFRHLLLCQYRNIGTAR
Method in brief: as §1

[1] = 100% = maximum response obtained with the Carbachol control, read-out: M1 Efficacy
[2] = 100% = maximum response obtained with the Carbachol control, read-out: M2 Efficacy
[3] = 100% = maximum response obtained with the Carbachol control, read-out: M3 Efficacy
[4] = 100% = maximum response obtained with the Carbachol control, read-out: M4 Efficacy
[5] = 100% efficacy = maximum response obtained with the Carbachol control

Compound | EC50 (M1 muscarinic receptor) [µM] | Emax (M1 muscarinic receptor; [1]) [%] | EC50 (M2 muscarinic receptor) [µM] | Emax (M2 muscarinic receptor; [2]) [%] | EC50 (M3 muscarinic receptor) [µM] | Emax (M3 muscarinic receptor; [3]) [%] | EC50 (M4 muscarinic receptor) [µM] | Emax (M4 muscarinic receptor; [4]) [%] | M1 Activity (M1 muscarinic receptor) | Emax (M1 muscarinic receptor; [5]) [%] | M2 Activity (M2 muscarinic receptor) | Emax (M2 muscarinic receptor; [5]) [%] | M3 Activity (M3 muscarinic receptor) | Emax (M3 muscarinic receptor; [5]) [%] | M4 Activity (M4 muscarinic receptor) | Emax (M4 muscarinic receptor; [5]) [%]
CC(=O)N1CCCC(C(=O)N[C@H]2CCC3(CCN(CCC(C)(C)C)CC3)c3cc(F)ccc32)C1 (stereo partly drawn) [compound 59] | < 2 | 25 to 100 | 2 to 5 | < 25 | > 5 | < 25 | < 2 | 25 to 100 |  |  |  |  |  |  |  | 
CC(=O)N(C)[C@H]1CCC2(CCN(CCC(C)(C)C)CC2)c2cc(F)ccc21 [compound 218] |  |  |  |  |  |  |  |  | +++ (activity was measured to be less than 2.0 μM) | 25 to 100 | +++ (activity was measured to be less than 2.0 μM) | < 25 | + (activity was measured to be greater than 5.0 μM) | < 25 | +++ (activity was measured to be less than 2.0 μM) | 25 to 100
CC(C)CCN1CCC2(CC[C@H](NC(=O)C3CC3)c3ccccc32)CC1 [compound 125] | < 2 | 25 to 100 | 2 to 5 | < 25 | > 5 | < 25 | < 2 | 25 to 100 |  |  |  |  |  |  |  | 
C[C@@H](C(=O)N[C@@H]1CCC2(CCN(CCC(C)(C)C)CC2)c2ccccc21)N1CCCC1=O [compound 146] | > 5 | 25 to 100 | > 5 | < 25 | > 5 | < 25 | < 2 | 25 to 100 |  |  |  |  |  |  |  | 
CC(C)CCN1CCC2(CC1)C[C@H](NC(=O)C1CCCC1)c1ccccc12 [compound 299] |  |  |  |  |  |  |  |  | + (activity was measured to be greater than 5.0 μM) | < 25 | + (activity was measured to be greater than 5.0 μM) | < 25 | + (activity was measured to be greater than 5.0 μM) | < 25 | + (activity was measured to be greater than 5.0 μM) | < 25
CC(C)(C)CCN1CCC2(CC[C@H](NC(=O)CC3CCOCC3)c3ccccc32)CC1 [compound 135] | < 2 | 25 to 100 | > 5 | < 25 | > 5 | < 25 | < 2 | 25 to 100 |  |  |  |  |  |  |  | 
CC(=O)N[C@H]1CCC2(CCN(CCC(C)CCC=C(C)C)CC2)c2ccccc21 (stereo partly drawn) [compound 68] | < 2 | > 100 | < 2 | 25 to 100 | > 5 | < 25 | < 2 | 25 to 100 |  |  |  |  |  |  |  | 
Cn1cncc1C(=O)N[C@H]1CCC2(CCN(CCC(C)(C)C)CC2)c2ccccc21 [compound 219] |  |  |  |  |  |  |  |  | +++ (activity was measured to be less than 2.0 μM) | 25 to 100 | +++ (activity was measured to be less than 2.0 μM) | 25 to 100 | + (activity was measured to be greater than 5.0 μM) | < 25 | +++ (activity was measured to be less than 2.0 μM) | 25 to 100
CC(=O)N[C@@H]1CCC2(CCN(CCC(C)(C)C)CC2)c2ccccc21 [compound 64] | 2 to 5 | < 25 | > 5 | < 25 | > 5 | < 25 | < 2 | 25 to 100 |  |  |  |  |  |  |  | 
COC(=O)N(C)[C@H]1CCC2(CCN(CCC(C)(C)C)CC2)c2ccccc21 [compound 174] | 2 to 5 | 25 to 100 | > 5 | < 25 | > 5 | < 25 | < 2 | 25 to 100 |  |  |  |  |  |  |  | 
CC(C)(C)CCN1CCC2(CC[C@H](NC(=O)CCCN3CCCC3=O)c3ccccc32)CC1 [compound 197] |  |  |  |  |  |  |  |  | +++ (activity was measured to be less than 2.0 μM) | 25 to 100 | +++ (activity was measured to be less than 2.0 μM) | 25 to 100 | + (activity was measured to be greater than 5.0 μM) | < 25 | +++ (activity was measured to be less than 2.0 μM) | 25 to 100
CC(=O)N1CCCC[C@H]1C(=O)N[C@H]1CCC2(CCN(CCC(C)(C)C)CC2)c2cc(F)ccc21 [compound 83] | < 2 | 25 to 100 | > 5 | < 25 | > 5 | < 25 | < 2 | 25 to 100 |  |  |  |  |  |  |  | 
CC(=O)CCC(=O)N[C@@H]1CCC2(CCN(CCC(C)(C)C)CC2)c2ccccc21 [compound 205] |  |  |  |  |  |  |  |  | +++ (activity was measured to be less than 2.0 μM) | 25 to 100 | + (activity was measured to be greater than 5.0 μM) | < 25 | + (activity was measured to be greater than 5.0 μM) | < 25 | +++ (activity was measured to be less than 2.0 μM) | 25 to 100
CC(=O)N[C@H]1CCC2(CCN(C(C)CC(C)(C)C)CC2)c2ccccc21 (stereo partly drawn) [compound 204] |  |  |  |  |  |  |  |  | +++ (activity was measured to be less than 2.0 μM) | 25 to 100 | + (activity was measured to be greater than 5.0 μM) | < 25 | + (activity was measured to be greater than 5.0 μM) | < 25 | +++ (activity was measured to be less than 2.0 μM) | 25 to 100
CC(C)(C)CCN1CCC2(CC[C@H](NC(=O)CCN3CCCC3=O)c3ccccc32)CC1 [compound 124] | < 2 | 25 to 100 | < 2 | 25 to 100 | > 5 | < 25 | < 2 | 25 to 100 |  |  |  |  |  |  |  | 
CCN(C(=O)C1CCCO1)[C@H]1CCC2(CCN(CCC(C)(C)C)CC2)c2ccccc21 (stereo partly drawn) [compound 39] | > 5 | 25 to 100 | > 5 | < 25 | > 5 | < 25 | < 2 | 25 to 100 |  |  |  |  |  |  |  | 
CC(C)(C)CCN1CCC2(CC[C@H](NC(=O)C(F)(F)F)c3ccccc32)CC1 [compound 224] |  |  |  |  |  |  |  |  | +++ (activity was measured to be less than 2.0 μM) | 25 to 100 | + (activity was measured to be greater than 5.0 μM) | < 25 | + (activity was measured to be greater than 5.0 μM) | < 25 | +++ (activity was measured to be less than 2.0 μM) | 25 to 100
CC(=O)N[C@H]1CCC2(CCN(CC(=O)C(C)(C)C)CC2)c2ccccc21 [Compound No. 130, (S)-N-(1′-(3,3-dimethyl-2-oxobutyl)-3,4-dihydro-2H-spiro[naphthalene-1,4′-piperidine]-4-yl)acetamide] | 2 to 5 | 25 to 100 | > 5 | < 25 | > 5 | < 25 | < 2 | 25 to 100 |  |  |  |  |  |  |  | 
